Data published in the NIST ThermoML archive (doi:10.1021/acs.jced.6b00121).
Values joined by “and” are separate entries in the source; they are usually repeats but may differ in a detail not shown here. Equal entries are not always repeated.

Columns and labels:
[1] = 100 kPa, Liquid; for viscosity: Falling or rolling sphere viscometry; for mass density: Vibrating tube method
[2] = xn = mol fraction of the nth substance listed; conditions: 100 kPa, Liquid, x2 = 0; for viscosity: Falling or rolling sphere viscometry; for mass density: Vibrating tube method

CCCCCCCCCCC [undecane]
[1]
Conditions	mass density	viscosity [mPa·s]
283.15 K	747.78 kg/m3	1.371
288.15 K	744.06 kg/m3	1.249
293.15 K	740.35 kg/m3	1.145
298.15 K	736.64 kg/m3	1.062
303.15 K	732.93 kg/m3	0.982
308.15 K	729.23 kg/m3	0.91
313.15 K	725.53 kg/m3	0.847
318.15 K	721.82 kg/m3 and 721.818 kg/m3	0.79
323.15 K	718.11 kg/m3	0.74
328.15 K	714.39 kg/m3	0.692
333.15 K	710.68 kg/m3	0.651
338.15 K	706.95 kg/m3	0.615
343.15 K	703.22 kg/m3	0.58
348.15 K	699.47 kg/m3	0.549
353.15 K	695.72 kg/m3	0.522
358.15 K	691.96 kg/m3	0.497
363.15 K	688.18 kg/m3	0.475

CCCCO [butan-1-ol]
[1]
Conditions	mass density [kg/m3]	viscosity [mPa·s]
283.15 K	817.07	4.046
288.15 K	813.32	3.514
293.15 K	809.55	3.066
298.15 K	805.76	2.59
303.15 K	801.94	2.28
308.15 K	798.09	2.015
313.15 K	794.2	1.786
318.15 K	790.27	1.589
323.15 K	786.3	1.427
328.15 K	782.27	1.278
333.15 K	778.18	1.147
338.15 K	774.03	1.032
343.15 K	769.8	0.934
348.15 K	765.49	0.842
353.15 K	761.12	0.762
358.15 K	756.64	0.693
363.15 K	752.08	0.633

CCCCCCO [hexan-1-ol] + CCCCCCCCCCC
[2]
Conditions	mass density [kg/m3]	viscosity [mPa·s]
283.15 K	825.94	7.487
288.15 K	822.42	6.307
293.15 K	818.88	5.348
298.15 K	815.32	4.555
303.15 K	811.74	3.903
308.15 K	808.13	3.361
313.15 K	804.5	2.912
318.15 K	800.83	2.538
323.15 K	797.12	2.228
328.15 K	793.37	1.97
333.15 K	789.57	1.744
338.15 K	785.72	1.553
343.15 K	781.83	1.39
348.15 K	777.86	1.255
353.15 K	773.86	1.125
358.15 K	769.78	1.018
363.15 K	765.64	0.925

CCCCCO [pentan-1-ol]
[1]
Conditions	mass density [kg/m3]	viscosity [mPa·s]
283.15 K	821.9	5.431
288.15 K	818.3	4.655
293.15 K	814.68	4.011
298.15 K	811.03	3.474
303.15 K	807.37	3.023
308.15 K	803.67	2.642
313.15 K	799.94	2.32
318.15 K	796.17	2.045
323.15 K	792.36	1.81
328.15 K	788.5	1.608
333.15 K	784.59	1.434
338.15 K	780.62	1.283
343.15 K	776.58	1.152
348.15 K	772.49	1.038
353.15 K	768.33	0.939
358.15 K	764.08	0.852
363.15 K	759.77	0.776

CCCO [propan-1-ol]
[1]
Conditions	mass density [kg/m3]	viscosity [mPa·s]
283.15 K	811.48	2.834
288.15 K	807.54	2.489
293.15 K	803.58	2.195
298.15 K	799.59	1.929
303.15 K	795.58	1.714
308.15 K	791.53	1.536
313.15 K	787.44	1.372
318.15 K	783.304	1.229
323.15 K	779.11	1.113
328.15 K	774.86	1.002
333.15 K	770.54	0.905
338.15 K	766.15	0.819
343.15 K	761.67	0.752
348.15 K	757.09	0.685
353.15 K	752.44	0.625
358.15 K	747.65	0.574
363.15 K	742.77	0.528

CCCCCCO [hexan-1-ol]
[1]
Conditions	mass density [kg/m3]	viscosity [mPa·s]
283.15 K	825.94	7.487
288.15 K	822.42	6.307
293.15 K	818.88	5.348
298.15 K	815.32	4.555
303.15 K	811.74	3.903
308.15 K	808.13	3.361
313.15 K	804.5	2.912
318.15 K	800.83	2.538
323.15 K	797.12	2.228
328.15 K	793.37	1.97
333.15 K	789.57	1.744
338.15 K	785.72	1.553
343.15 K	781.83	1.39
348.15 K	777.86	1.255
353.15 K	773.86	1.125
358.15 K	769.78	1.018
363.15 K	765.64	0.925

CCCCO [butan-1-ol] + CCCCCCCCCCC
[2]
Conditions	mass density [kg/m3]	viscosity [mPa·s]
283.15 K	817.07	4.046
288.15 K	813.32	3.514
293.15 K	809.55	3.066
298.15 K	805.76	2.59
303.15 K	801.94	2.28
308.15 K	798.09	2.015
313.15 K	794.2	1.786
318.15 K	790.27	1.589
323.15 K	786.3	1.427
328.15 K	782.27	1.278
333.15 K	778.18	1.147
338.15 K	774.03	1.032
343.15 K	769.8	0.934
348.15 K	765.49	0.842
353.15 K	761.12	0.762
358.15 K	756.64	0.693
363.15 K	752.08	0.633

CCCCCO [pentan-1-ol] + CCCCCCCCCCC
[2]
Conditions	mass density [kg/m3]	viscosity [mPa·s]
283.15 K	821.9	5.431
288.15 K	818.3	4.655
293.15 K	814.68	4.011
298.15 K	811.03	3.474
303.15 K	807.37	3.023
308.15 K	803.67	2.642
313.15 K	799.94	2.32
318.15 K	796.17	2.045
323.15 K	792.36	1.81
328.15 K	788.5	1.608
333.15 K	784.59	1.434
338.15 K	780.62	1.283
343.15 K	776.58	1.152
348.15 K	772.49	1.038
353.15 K	768.33	0.939
358.15 K	764.08	0.852
363.15 K	759.77	0.776

CCCO [propan-1-ol] + CCCCCCCCCCC
[2]
Conditions	mass density [kg/m3]	viscosity [mPa·s]
283.15 K	811.48	2.834
288.15 K	807.54	2.489
293.15 K	803.58	2.195
298.15 K	799.59	1.929
303.15 K	795.58	1.714
308.15 K	791.53	1.536
313.15 K	787.44	1.372
318.15 K	783.304	1.229
323.15 K	779.11	1.113
328.15 K	774.86	1.002
333.15 K	770.54	0.905
338.15 K	766.15	0.819
343.15 K	761.67	0.752
348.15 K	757.09	0.685
353.15 K	752.44	0.625
358.15 K	747.65	0.574
363.15 K	742.77	0.528
